The record followed here is patent US12018303B2, “Method for preparing amines from carbonyl compounds by transaminase reaction under salt precipitation” (ENZYMICALS AG, priority 2017, dated 2024).

Molecules are shown by their SMILES. Like-named read-outs stand apart in the source and are kept apart here.

Data set [1] has as its system amine transaminases AfATA, GzATA, NfATA, AoATA, AtATA, MvATA, SpATA. The class given is biochemical.
For data set [2] the following is noted: donor amine salt.
Data set [3] in a line: Stability of salt solutions observed in the screening. The class given is physicochemical. The note with it: certain salt solutions; strong discoloration. The source says:
The results of table 3 show clearly that certain acids allow significant differences in solubility between investigated salts. In this screening especially differences between product amines and the commonly used donor amines isopropylamine/alanine were targeted. Based on this consideration the following acids appear most applicable: 34CA, 34NA, 43CNA and 3DPPA. In addition, 2DPPA was identified as suitable acid. Acids with less strong differences are PCPA, 24CNA, 25CNA, 35DNOT, 3NA and 435CNBA, which might be useful for other product amines.

`O=C(O)CC(c1ccccc1)c1ccccc1` [Compound 3DPPA, 3,3-diphenylpropionic acid]: the “inhibition of amine transaminases” value in data set [1] was “does not significantly inhibit”.

As to `CC(C)N.O=C(O)c1ccc(Cl)c([N+](=O)[O-])c1` [Compound 5, isopropylamine salt of 4-chloro-3-nitrobenzoic acid (43CNA)], the solubility in data set [2] is on record as 993.

`O=C(O)c1ccc(Cl)c([N+](=O)[O-])c1` [Compound 43CNA, 4-chloro-3-nitro-benzoic acid]: in data set [1] (pH 7.5), the “inhibition of amine transaminases” value was “strongly inhibited”.

Consider `O=C(O)C(c1ccccc1)c1ccccc1` [DPAA, diphenylacetic acid], for which the “inhibition of amine transaminases” value in data set [1] (pH 7.5) is recorded as “strongly inhibited”.

For the compound `O=C(O)C1(c2ccccc2)CCCC1` [PCPA, 1-Phenylcyclo-pentane-carboxylic acid], the “stability of salt solutions” value in data set [3] is recorded as “unknown decomposition reaction”.
